Assay results reported in BindingDB's records for doi:10.1016/j.bmc.2008.09.058 (Yale University, 2009).
Square brackets hold non-standard residues; d marks the D form. Peptide text beside a SMILES is read from it. * marks the point of attachment. 4Abz = Nc1ccc(C(=O)O)cc1; NHBn = c1ccc(CN*)cc1

Target: RAC-alpha serine/threonine-protein kinase (Homo sapiens, UniProt P31749)
Experiment: AKT IMAP Fluorescence Polarization Assay
Conditions: pH 7.2; 23 °C
Source text: A bead-based FP assay methodology, termed IMAP, has been developed for the serine/threonine kinase, AKT that allows for direct measurement of product formation. The assay design utilizes a fluoresceinated peptide substrate that, when phosphorylated by the kinase, binds to nanoparticles derivatized with trivalent metal cations through a metal-phospholigand interaction. The result of this bound fluoresceinated phosphorylated product is an increase in polarization signal caused by a decrease in the molecular mobility of the bound product. Reported values are an average of three independent binding curves utilizing an IMAP Akt Assay Kit (Molecular Devices). Reactions were conducted in wells with fluoresceinated peptide, ATP, and Akt1, and inhibitor in reaction buffer. The reactions were equilibrated for 1 h at room temperature then data points were collected and analyzed.

Sequence of RAC-alpha serine/threonine-protein kinase (P31749 whole entry): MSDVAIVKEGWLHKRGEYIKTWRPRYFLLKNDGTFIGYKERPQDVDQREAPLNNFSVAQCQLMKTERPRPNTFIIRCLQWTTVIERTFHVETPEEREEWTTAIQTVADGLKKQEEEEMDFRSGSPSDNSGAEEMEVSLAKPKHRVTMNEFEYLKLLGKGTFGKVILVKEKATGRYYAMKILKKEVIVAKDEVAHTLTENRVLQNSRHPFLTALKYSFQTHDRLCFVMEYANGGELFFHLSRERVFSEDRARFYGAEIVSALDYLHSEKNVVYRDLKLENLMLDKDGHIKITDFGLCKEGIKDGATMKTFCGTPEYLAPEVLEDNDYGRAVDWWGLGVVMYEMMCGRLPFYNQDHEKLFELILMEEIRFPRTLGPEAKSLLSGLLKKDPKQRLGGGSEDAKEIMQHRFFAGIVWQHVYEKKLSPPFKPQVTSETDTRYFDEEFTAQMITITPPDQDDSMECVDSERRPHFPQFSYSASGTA

Which IC50 does the source give for `CC(=O)NC(CCCN=C(N)N)C(=O)Nc1ccc(C(=O)NC(C(=O)NC(Cc2ccccc2)C(=O)NCc2ccccc2)C(C)C)cc1` (configuration not stated) [Peptidomimetic, 9] (Ac-R[4Abz]VF-NHBn; configuration not given here) here?
The IC50 was 119 µM.

With `CC(=O)NCC(=O)NC(CCCN=C(N)N)C(=O)N1CCCC1C(=O)NC(CCCN=C(N)N)C(=O)Nc1ccc(C(=O)NC(C(=O)NC(Cc2ccccc2)C(=O)NCc2ccccc2)C(C)C)cc1` (configuration not stated) [Peptidomimetic, 2] (Ac-GRPR[4Abz]VF-NHBn; configuration not given here) as the molecule, how does the IC50 read?
Its IC50 is 28 µM.
